The text below walks through data of patent publication US11407757B2, “Heterocycle compounds as Tyro3, Axl and MerTK (TAM) family of receptor tyrosine kinase inhibitors” (Development Center for Biotechnology, priority 2017, dated 2022).

Read-outs that look alike come from different tables or passages of the source. Some results are limits rather than exact numbers.

Assay [1] addresses Axl kinase (Homo sapiens (Human), UniProt P30530). Briefly: Axl kinase assay (AlphaScreen). The class given is biochemical. The note with it: activity level class. For orientation: Bead proximity is the source of the signal in Alpha formats.
Assay [2] has as its target Met kinase (Homo sapiens, UniProt P08581). Briefly: Met kinase assay (AlphaScreen). The class given is biochemical.
Assay [3] has as its target Mer kinase (Homo sapiens (Human), UniProt Q12866). Briefly: Mer kinase assay (AlphaScreen). The note with it: read-out: Mer kinase IC50; activity level class.
Assay [4] deals with Gas6 ligand induced AKT phosphorylation. Briefly: Gas6 ligand induced AKT phosphorylation, western blotting in H1299 NSCLC cells. The class given is cell-based. The note with it: Homo sapiens, NCI-H1299, at 100 nM treatment, 100 ng/mL Gas6, read-out: inhibition activity against Gas6 ligand induced AKT phosphorylation. In general terms: Immunoblotting shows a protein as a band on a membrane.

[5] abbreviates: activity level class, read-out: Met kinase IC50.

The term IC50 denotes the midpoint of a concentration-inhibition curve. In the case of `COc1nc(Nc2ccc(CN3CCC(C)CC3)cc2)nc2[nH]cc(-c3ccc(NS(=O)(=O)c4cc(F)ccc4F)cc3)c12` [Compound 2, 2,5-difluoro-N-(4-(4-methoxy-2-((4-((4-methylpiperidin-1-yl)methyl)phenyl)amino)-7H-pyrrolo[2,3-d]pyrimidin-5-yl)phenyl)benzene-sulfonamide], the values for the half-inhibitory concentration (IC50) in assay [1], in assay [2] and in assay [3] were < 30 nM, 100 to 400 nM and < 30 nM, respectively.

The inhibition is the share of the control response that was lost under treatment. In the case of `Cc1nc2ccc(-c3c[nH]c4nc(Nc5ccc(CN6CCN(C)CC6)cc5)nc(OCC5CCCO5)c34)cc2o1` (stereo not drawn) [Compound 67, 5-(2-methylbenzo[d]oxazol-6-yl)-N-(4-((4-methylpiperazin-1-yl)methyl)phenyl)-4-((tetrahydrofuran-2-yl)methoxy)-7H-pyrrolo [2,3-d]pyrimidin-2-amine], the IC50 in assay [1] was < 30 nM; in assay [2] (setting [5]), > 1000 nM; in assay [3], > 1000 nM. Moreover, the inhibition at 0.1 µM in assay [4] is > 50%.

For the molecule `COCCOc1nc(Nc2ccc(CN3CCN(C)CC3)cc2)nc2[nH]cc(-c3ccc(NC(=O)c4cc(C)n(C)n4)cc3)c12` [Compound 76, N-(4-(4-(2-methoxyethoxy)-2-((4-((4-methylpiperazin-1-yl)methyl)phenyl)amino)-7H-pyrrolo[2,3-d]pyrimidin-5-yl)phenyl)-1,5-dimethyl-7H-pyrazole-3-carboxamide], the IC50 in assay [1] was < 30 nM; in assay [2] (setting [5]) it was > 1000 nM; in assay [3], > 1000 nM. For the same molecule, the inhibition at 0.1 µM in assay [4] is > 50%.

On to `COCCOc1nc(Nc2ccc(CN3CCN(C)CC3)cc2)nc2[nH]cc(-c3ccc(S(=O)(=O)N4CCOCC4)cc3)c12` [Compound 88, 4-(2-methoxyethoxy)-N-(4-((4-methylpiperazin-1-yl)methyl)phenyl)-5-(4-(morpholinosulfonyl)phenyl)-7H-pyrrolo[2,3-d]pyrimidin-2-amine], for which, in assay [3], the IC50 was > 1000 nM.

Consider `COCCOc1nc(Nc2ccc(CN3CCN(C)CC3)cc2)nc2[nH]cc(-c3ccc(S(=O)(=O)C(C)C)cc3)c12` [Compound 89, 5-(4-(isopropylsulfonyl)phenyl)-4-(2-methoxyethoxy)-N-(4-((4-methylpiperazin-1-yl)methyl)phenyl)-7H-pyrrolo[2,3-d]pyrimidin-2-amine], for which, in assay [3], the IC50 is > 1000 nM.

Take `COCCOc1nc(Nc2ccc(CN3CCN(C)CC3)cc2)nc2[nH]cc(-c3ccc(OCc4ccccc4)cc3F)c12` [Compound 90, 5-(4-(benzyloxy)-2-fluorophenyl)-4-(2-methoxyethoxy)-N-(4-((4-methylpiperazin-1-yl)methyl)phenyl)-7H-pyrrolo[2,3-d]pyrimidin-2-amine]: the IC50 in assay [3] was > 1000 nM.

Take `COCCOc1nc(Nc2ccc(CN3CCN(C)CC3)cc2)nc2[nH]cc(-c3ccc(OCc4ccncc4)cc3F)c12` [Compound 93, 5-(2-fluoro-4-(pyridin-4-ylmethoxy)phenyl)-4-(2-methoxyethoxy)-N-(4-((4-methylpiperazin-1-yl)methyl)phenyl)-7H-pyrrolo[2,3-d]pyrimidin-2-amine]: the IC50 in assay [1] is < 30 nM; in assay [2] (setting [5]) it was > 1000 nM; in assay [3] it was > 1000 nM. In assay [4], the inhibition at 0.1 µM was > 50%.

In the case of `COCCOc1nc(Nc2ccc(CN3CCN(C)CC3)cc2)nc2[nH]cc(-c3ccc(S(=O)(=O)N4CCC4)cc3)c12` [Compound 94, 5-(4-(azetidin-1-ylsulfonyl)phenyl)-4-(2-methoxyethoxy)-N-(4-((4-methylpiperazin-1-yl)methyl)phenyl)-7H-pyrrolo[2,3-d]pyrimidin-2-amine], the IC50 in assay [1] is < 30 nM; in assay [2] (setting [5]), > 1000 nM; in assay [3], > 1000 nM.

For the molecule `COCCOc1nc(Nc2ccc(CN3CCN(C)CC3)cc2)nc2[nH]cc(-c3ccc(OCc4cccnc4)cc3F)c12` [Compound 95, 5-(2-fluoro-4-(pyridin-3-ylmethoxy)phenyl)-4-(2-methoxyethoxy)-N-(4-((4-methylpiperazin-1-yl)methyl)phenyl)-7H-pyrrolo[2,3-d]pyrimidin-2-amine], the 50% inhibitory concentration (IC50) in assay [1] was < 30 nM; in assay [2] (setting [5]) it was > 1000 nM; in assay [3], > 1000 nM.

In the case of `COCCOc1nc(Nc2ccc(CN3CCN(C)CC3)cc2)nc2[nH]cc(-c3ccc(O)cc3F)c12` [Compound 96, 3-fluoro-4-(4-(2-methoxyethoxy)-2-((4-((4-methylpiperazin-1-yl)methyl)phenyl)amino)-7H-pyrrolo[2,3-d]pyrimidin-5-yl)phenol], the results for the concentration for half-maximal inhibition (IC50) in assay [1], in assay [2] and in assay [3] were < 30 nM, 100 to 400 nM and < 30 nM, respectively.

As to `COCCOc1nc(Nc2ccc(CN3CCN(C)CC3)cc2)nc2[nH]cc(-c3ccc(S(=O)(=O)N4CCCCC4)cc3)c12` [Compound 98, 4-(2-methoxyethoxy)-N-(4-((4-methylpiperazin-1-yl)methyl)phenyl)-5-(4-(piperidin-1-ylsulfonyl)phenyl)-7H-pyrrolo[2,3-d]pyrimidin-2-amine], the IC50 is < 30 nM in assay [1], 400 to 1000 nM in assay [2] and > 1000 nM in assay [3].

Consider `COCCOc1nc(Nc2ccc(CN3CCN(C)CC3)cc2)nc2[nH]cc(-c3ccc(OCc4cnccc4OC)cc3F)c12` [Compound 99, 5-(2-fluoro-4-((4-methoxypyridin-3-yl)methoxy)phenyl)-4-(2-methoxyethoxy)-N-(4-((4-methylpiperazin-1-yl)methyl)phenyl)-7H-pyrrolo[2,3-d]pyrimidin-2-amine], for which the half-maximal inhibitory concentration (IC50) in assay [3] is > 1000 nM.

For `COCCOc1nc(Nc2ccc(CN3CCN(C)CC3)cc2)nc2[nH]cc(-c3ccc(OCc4cncc(OC)c4)cc3F)c12` [Compound 100, 5-(2-fluoro-4-((5-methoxypyridin-3-yl)methoxy)phenyl)-4-(2-methoxyethoxy)-N-(4-((4-methylpiperazin-1-yl)methyl)phenyl)-7H-pyrrolo[2,3-d]pyrimidin-2-amine], the IC50 was < 30 nM in assay [1], > 1000 nM in assay [2] (setting [5]) and > 1000 nM in assay [3].

Regarding `COCCOc1nc(Nc2ccc(CN3CCN(C)CC3)cc2)nc2[nH]cc(-c3ccc(S(=O)(=O)N4CCN(C)CC4)cc3)c12` [Compound 102, 4-(2-methoxyethoxy)-N-(4-((4-methylpiperazin-1-yl)methyl)phenyl)-5-(4-((4-methylpiperazin-1-yl)sulfonyl)phenyl)-7H-pyrrolo[2,3-d]pyrimidin-2-amine], in assay [3], the half-inhibitory concentration (IC50) is > 1000 nM.

For `COCCOc1nc(Nc2ccc(CN3CCC(C)CC3)cc2)nc2[nH]cc(-c3ccc(OCc4ccccn4)cc3F)c12` [Compound 109, 5-(2-fluoro-4-(pyridin-2-ylmethoxy)phenyl)-4-(2-methoxyethoxy)-N-(4-((4-methylpiperidin-1-yl)methyl)phenyl)-7H-pyrrolo[2,3-d]pyrimidin-2-amine], the IC50 is < 30 nM in assay [1], 400 to 1000 nM in assay [2] and < 30 nM in assay [3]. In assay [4], the inhibition at 0.1 µM is > 50%.
